Reference: US8455497B2, “Inhibitors of aspartyl protease” (Vertex Pharmaceuticals Incorporated, priority 1999, dated 2013)

Legend:
HIV-1 (strain IIIB) = assay: Antiviral activity assay in MT4 cells (propidium iodide based); type: cell-based; conditions: Human immunodeficiency virus 1, IIIB; wild type HIV-1 virus, MT4 cells; read-out: Wildtype virus - IC50
Outline: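 Compound serial dilutions in RPMI/FCS received MT4 cells pre-infected 1 hr at 37°C with HIV-1 IIIB at 100×TCID50. After 5 days' culture and Nonidet-40 lysis, well DNA content was measured by propidium iodide dye; mock-infected cells served as control.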

[1] = system: D545701-14 multi protease inhibitor resistant virus; assay: Anti-viral activity against resistant virus D545701-14 in MT4 cells; type: cell-based, HIV-1; conditions: Human immunodeficiency virus 1, MT4, read-out: D545701-14 mutant - IC50, D545701-14 multi protease inhibitor resistant virus, MT4 cells
[2] = system: EP13 multi protease inhibitor resistant virus; assay: Anti-viral activity against resistant virus EP13 in MT4 cells; type: cell-based, HIV-1; conditions: Human immunodeficiency virus 1, MT4, read-out: EP13 mutant IC50, EP13 multi protease inhibitor resistant virus, MT4 cells
Outline: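 MT4 cells infected for 1 h at 37 °C, MOI 100×TCID50, then diluted 6-fold onto pre-diluted compound and cultured 5 days (5% CO2). Viable-cell DNA content estimated by propidium iodide. EP13 carries protease mutations M46I, L63P, A71V, V82F/L, I84V, no RT mutations.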

| Compound | IC50 (HIV-1 (strain IIIB)) | IC50 [1] | IC50 [2] |
| --- | --- | --- | --- |
| CC(C)CN(C[C@@H](O)[C@H](Cc1ccc(OCc2ccc(F)c(F)c2)cc1)NC(=O)O[C@H]1CO[C@H]2OCC[C@H]21)S(=O)(=O)c1ccc2c(c1)OCO2 [Compound 379, (3R,3aS,6aR)-hexahydrofuro[2,3-b]furan-3-yl (1S,2R)-3[(1,3-benzodioxol-5-ylsulfonyl)(isobutyl)amino]-1-{4-[(3,4-difluorobenzyl)oxy]benzyl}-2-hydroxypropylcarbamate] | 1 to 10 nM | 1 to 10 nM | 1 to 10 nM |
| CC(C)CN(C[C@@H](O)[C@H](Cc1ccc(OCc2cc(F)cc(F)c2)cc1)NC(=O)O[C@H]1CO[C@H]2OCC[C@H]21)S(=O)(=O)c1ccc2c(c1)OCO2 [Compound 380, (3R,3aS,6aR)-hexahydrofuro[2,3-b]furan-3-yl (1S,2R)-3-[(1,3-benzodioxol-5-ylsulfonyl)(isobutyl)amino]-1-{4-[(3,5-difluorobenzyl)oxy]benzyl}-2-hydroxypropylcarbamate] | 1 to 10 nM | 10 to 100 nM | 1 to 10 nM |
| CC(C)CN(C[C@@H](O)[C@H](Cc1ccc(OCc2ccc(C#N)cc2)cc1)NC(=O)O[C@H]1CO[C@H]2OCC[C@H]21)S(=O)(=O)c1ccc2c(c1)OCO2 [Compound 381, (3R,3aS,6aR)-hexahydrofuro[2,3-b]furan-3-yl (1S,2R)-3-[(1,3-benzodioxol-5-ylsulfonyl)(isobutyl)amino]-1-{4-[(4-cyanobenzyl)oxy]benzyl}-2-hydroxypropylcarbamate] | 1 to 10 nM | 1 to 10 nM | 1 to 10 nM |
| CC(C)CN(C[C@@H](O)[C@H](Cc1ccc(OCc2ccccc2C#N)cc1)NC(=O)O[C@H]1CO[C@H]2OCC[C@H]21)S(=O)(=O)c1ccc2c(c1)OCO2 [Compound 382, (3R,3aS,6aR)-hexahydrofuro[2,3-b]furan-3-yl (1S,2R)-3-[(1,3-benzodioxol-5-ylsulfonyl)(isobutyl)amino]-1-{4-[(2-cyanobenzyl)oxy]benzyl}-2-hydroxypropylcarbamate] | 1 to 10 nM | 1 to 10 nM | 1 to 10 nM |
| CC(C)CN(C[C@@H](O)[C@H](Cc1ccc(OCc2cccc([N+](=O)[O-])c2)cc1)NC(=O)O[C@H]1CO[C@H]2OCC[C@H]21)S(=O)(=O)c1ccc2c(c1)OCO2 [Compound 384, (3R,3aS,6aR)-hexahydrofuro[2,3-b]furan-3-yl (1S,2R)-3-[(1,3-benzodioxol-5-ylsulfonyl)(isobutyl)amino]-2-hydroxy-1-{4-[(3-nitrobenzyl)oxy]benzyl}propylcarbamate] | 1 to 10 nM | 1 to 10 nM | 1 to 10 nM |
| Cc1noc(C)c1COc1ccc(C[C@H](NC(=O)O[C@H]2CO[C@H]3OCC[C@H]32)[C@H](O)CN(CC(C)C)S(=O)(=O)c2ccc3c(c2)OCO3)cc1 [Compound 385, (3R,3aS,6aR)-hexahydrofuro[2,3-b]furan-3-yl (1S,2R)-3-[(1,3-benzodioxol-5-ylsulfonyl)(isobutyl)amino]-1-{4-[(3,5-dimethyl-4-isoxazolyl)methoxy]benzyl}-2-hydroxypropylcarbamate] | 1 to 10 nM | 10 to 100 nM | 1 to 10 nM |
| CC(C)CN(C[C@@H](O)[C@H](Cc1ccc(OCc2nnsc2Cl)cc1)NC(=O)O[C@H]1CO[C@H]2OCC[C@H]21)S(=O)(=O)c1ccc2c(c1)OCO2 [Compound 386, (3R,3aS,6aR)-hexahydrofuro[2,3-b]furan-3-yl (1S,2R)-3-[(1,3-benzodioxol-5-ylsulfonyl)(isobutyl)amino]-1-{4-[(5-chloro-1,2,3-thiadiazol-4-yl)methoxy]benzyl}-2-hydroxypropylcarbamate] | 1 to 10 nM | 10 to 100 nM | 1 to 10 nM |
| CC(C)CN(C[C@@H](O)[C@H](Cc1ccc(OCc2csc3ccccc23)cc1)NC(=O)O[C@H]1CO[C@H]2OCC[C@H]21)S(=O)(=O)c1ccc2c(c1)OCO2 [Compound 387, (3R,3aS,6aR)-hexahydrofuro[2,3-b]furan-3-yl (1S,2R)-3-[(1,3-benzodioxol-5-ylsulfonyl)(isobutyl)amino]-1-[4-(1-benzothien-3-ylmethoxy)benzyl]-2-hydroxypropylcarbamate] | 1 to 10 nM | 1 to 10 nM | 1 to 10 nM |
| CC(C)CN(C[C@@H](O)[C@H](Cc1ccc(OCc2ccccc2CS(=O)(=O)c2ccccc2)cc1)NC(=O)O[C@H]1CO[C@H]2OCC[C@H]21)S(=O)(=O)c1ccc2c(c1)OCO2 [Compound 388, (3R,3aS,6aR)-hexahydrofuro[2,3-b]furan-3-yl (1S,2R)-3-[(1,3-benzodioxol-5-ylsulfonyl)(isobutyl)amino]-2-hydroxy-1-[4-{(2-[(phenylsulfonyl)methyl]benzyl}oxy)benzyl]propylcarbamate] | 1 to 10 nM | 1 to 10 nM | 1 to 10 nM |
| Cc1noc(C)c1-c1nc(COc2ccc(C[C@H](NC(=O)O[C@H]3CO[C@H]4OCC[C@H]43)[C@H](O)CN(CC(C)C)S(=O)(=O)c3ccc4c(c3)OCO4)cc2)no1 [Compound 389, (3R,3aS,6aR)-hexahydrofuro[2,3-b]furan-3-yl (1S,2R)-3-[(1,3-benzodioxol-5-ylsulfonyl)(isobutyl)amino]-1-(4-{[5-(3,5-dimethyl-4-isoxazolyl)-1,2,4-oxadiazol-3-yl]methoxy}benzyl)-2-hydroxypropylcarbamate] | 1 to 10 nM | 1 to 10 nM | 1 to 10 nM |
| COc1ccc(-c2nc(COc3ccc(C[C@H](NC(=O)O[C@H]4CO[C@H]5OCC[C@H]54)[C@H](O)CN(CC(C)C)S(=O)(=O)c4ccc5c(c4)OCO5)cc3)no2)cc1 [Compound 391, (3R,3aS,6aR)-hexahydrofuro[2,3-b]furan-3-yl (1S,2R)-3-[(1,3-benzodioxol-5-ylsulfonyl)(isobutyl)amino]-2-hydroxy-1-(4-{[5-(4-methoxyphenyl)-1,2,4-oxadiazol-3-yl]methoxy}benzyl)propylcarbamate] | 1 to 10 nM | 1 to 10 nM | 1 to 10 nM |
| CC(C)CN(C[C@@H](O)[C@H](Cc1ccc(OCc2ccc(-c3ccccc3C#N)cc2)cc1)NC(=O)O[C@H]1CO[C@H]2OCC[C@H]21)S(=O)(=O)c1ccc2c(c1)OCO2 [Compound 392, (3R,3aS,6aR)-hexahydrofuro[2,3-b]furan-3-yl (1S,2R)-3-[(1,3-benzodioxol-5-ylsulfonyl)(isobutyl)amino]-1-{4-[(2′-cyano[1,1-biphenyl]-4-yl)methoxy]benzyl}-2-hydroxypropylcarbamate] | 1 to 10 nM | 1 to 10 nM | 1 to 10 nM |
| CC(C)CN(C[C@@H](O)[C@H](Cc1ccc(OCC#N)cc1)NC(=O)O[C@H]1CO[C@H]2OCC[C@H]21)S(=O)(=O)c1ccc2c(c1)OCO2 [Compound 393, (3R,3aS,6aR)-hexahydrofuro[2,3-b]furan-3-yl (1S,2R)-3-[(1,3-benzodioxol-5-ylsulfonyl)(isobutyl)amino]-1-[4-(cyanomethoxy)benzyl]-2-hydroxypropylcarbamate] | 10 to 100 nM | 10 to 100 nM | 10 to 100 nM |
| O=C(N[C@@H](Cc1ccc(OCc2ccccc2)cc1)[C@H](O)CN(CC1CCCC1)S(=O)(=O)c1ccc2c(c1)OCO2)O[C@H]1CO[C@H]2OCC[C@H]21 [Compound 395, (3R,3aS,6aR)-hexahydrofuro[2,3-b]furan-3-yl (1S,2R)-3-[(1,3-benzodioxol-5-ylsulfonyl) (cyclopentylmethyl)amino]-1-[4-(benzyloxy)benzyl]-2-hydroxypropylcarbamate] | 1 to 10 nM | 1 to 10 nM | 1 to 10 nM |
| N#CCOc1ccc(C[C@H](NC(=O)O[C@H]2CO[C@H]3OCC[C@H]32)[C@H](O)CN(CC2CCCC2)S(=O)(=O)c2ccc3c(c2)OCO3)cc1 [Compound 397, (3R,3aS,6aR)-hexahydrofuro[2,3-b]furan-3-yl (1S,2R)-3-[(1,3-benzodioxol-5-ylsulfonyl)(cyclopentylmethyl)amino]-1-[4-(cyanomethoxy)benzyl]-2-hydroxypropylcarbamate] | 10 to 100 nM | 1 to 10 nM | 1 to 10 nM |
